Source: US20160052898A1, “NOVEL COMPOUNDS” (BAYER PHARMA AKTIENGESELLSCHAFT, priority 2013, published 2016)
Like-named read-outs stand apart in the source and are kept apart here.

Experiments:
[1] = tested on: constitutive active colorectal cancer cell (CRC) Wnt pathway; assay: HCT116 Super TopFlash cellular reporter assay (constitutive active Wnt pathway); format: cell-based; conditions: HCT116 TOP reporter cells, luciferase expression, 36 hours incubation, 50 μM to 15 nM
Method: In order to discover and characterize small molecules which inhibit the constitutive active colorectal cancer cell (CRC) Wnt pathway, a cellular reporter assay was employed. The corresponding assay cell was generated by transfection of the colorectal cancer cell line HCT116 (ATCC, #CCL-247) with the Super TopFlash vector (Morin, Science 275, 1997, 1787-1790; Molenaar et al., Cell 86 (3), 1996, 391-399). The HCT116 cell line is cultivated at 37° C. and 5% CO2 in DMEM/F-12 (Life Technologies, #11320-074), supplemented with 2 mM glutamine, 20 mM HEPES, 1.4 mM pyruvate, 0.15% Na-bicarbonate and 10% foetal bovine serum (GIBCO, #10270), this cancer cell line is pathophysiological relevant since it carries a deletion of position S45 in the β-catenin gene, leading to constitutive active Wnt signaling. Stable transfectants were generated by cotransfection with pcDNA3 and selection of stable transfected cells with 1 mg/ml G418.
(§1) In a parallel approach, HCT116 cells were cotransfected with the FOP control vector and pcDNA3. The FOP vector is identical to the TOP construct, but it contains instead of functional TCF elements a randomized, non-functional sequence. For this transfection a stable transfected cell line was generated as well.
(§2) In preparation of the assay, the two cell lines were plated 24 hrs before at 10000 cells per well of a 384 micro titre plate (MTP) in 30 μL growth medium. Selective inhibitory activity for small molecules on the mutated Wnt pathway was determined after parallel incubation of both (TOP and FOP) HCT116 reporter cell lines with a compound dilution series from 50 μM to 15 nM in steps of 3.16-fold dilutions in CAFTY buffer (130 mM NaCl, 5 mM KCl, 20 mM HEPES, 1 mM MgCl2, 5 mM NaHCO3, pH 7.4) containing 2 mM Ca^2+ and 0.01% BSA. The compounds were thereby serially prediluted in 100% DMSO and thereafter in addition 50 fold into the CAFTY compound dilution buffer (described above). From this dilution 10 μL were added to the cells in 30 μL growth medium and incubated for 36 hours at 37° C. and 5% CO2. Thereafter luciferase assay buffer (1:1 mixture of luciferase substrate buffer (20 mM Tricine, 2.67 mM MgSO4, 0.1 mM EDTA, 4 mM DTT, 270 μM Coenzyme A, 470 μM Luciferin, 530 μM ATP, ph adjusted to pH 7.8 with a sufficient volume of 5M NaOH) and Triton buffer (30 mL Triton X-100, 115 mL glycerol, 308 mg Dithiothreitol, 4.45 g Na2HPO4.2 H2O, 3.03 g Tris.HCL, ad 1 l H20, pH 7.8) was added as equal volume to the compound solution on the cells to determine luciferase expression as a measure of Wnt signaling activity in a luminometer.

[2] = tested on: HCT116 FOP control reporter cell line; assay: HCT116 FOP control vector reporter assay (non-functional TCF elements); format: cell-based; conditions: HCT116 FOP control reporter cells, luciferase expression, 36 hours incubation, 50 μM to 15 nM, read-out: HCT116 FOPFlash IC50
Method: as §1, §2

SMILES | IC50 [1] [nM] | IC50 [2] [µM] | IC50 ([2]; Homo sapiens, HCT-116, 36 h) [µM] | IC50 ([1]; Homo sapiens, HCT-116, 36 h) [nM]
O=C(Cn1cccn1)Nc1cc(C(=O)Nc2ccc(-c3ccccc3)cc2)ccc1C(F)(F)F [Example 3, N-(biphenyl-4-yl)-3-[(1H-pyrazol-1-ylacetyl)amino]-4-(trifluoromethyl)benzamide] |  |  | ≥ 50 | 430
COc1cc(Cl)c(C(=O)Nc2ccc(-c3ccccc3)cc2)cc1NC(=O)C(C)N1CCOCC1 (stereo not shown) [Example 5, N-(biphenyl-4-yl)-2-chloro-4-methoxy-5-{[2-(morpholin-4-yl)propanoyl]amino}benzamide] |  |  | ≥ 50 | 507
COc1cc(Cl)c(C(=O)Nc2ccc(-c3ccccc3)cc2)cc1NC(=O)CN1CCOCC1 [Example 6, N-(biphenyl-4-yl)-2-chloro-4-methoxy-5-[(morpholin-4-ylacetyl)amino]benzamide] |  |  | ≥ 50 | 3920
O=C(CN1CC2CCC(C1)O2)Nc1cc(C(=O)Nc2ccc(-c3ccccc3)cc2)ccc1C(F)(F)F [Example 10, N-(biphenyl-4-yl)-3-[(8-oxa-3-azabicyclo[3.2.1]oct-3-ylacetyl)amino]-4-(trifluoromethyl)benzamide] |  |  | ≥ 50 | 170
O=C(CN1C[C@@H]2C[C@H]1CO2)Nc1cc(C(=O)Nc2ccc(-c3ccccc3)cc2)ccc1C(F)(F)F [Example 11, N-(biphenyl-4-yl)-3-{[(1S,4S)-2-oxa-5-azabicyclo[2.2.1]hept-5-ylacetyl]amino}-4-(trifluoromethyl)benzamide] |  |  | ≥ 50 | 533
O=C(CN1CCOCC1)Nc1cc(C(=O)Nc2ccc(-c3ccccc3)cc2)ccc1-c1cccs1 [Example 19, N-(biphenyl-4-yl)-3-[(morpholin-4-ylacetyl)amino]-4-(2-thienyl)benzamide] |  |  | ≥ 50 | 136
CN(C)C(=O)c1ccc(C(=O)Nc2ccc(-c3ccccc3)cc2)cc1NC(=O)CN1CCOCC1 [Example 21, N^4-(biphenyl-4-yl)-N^1,N^1-dimethyl-2-[(morpholin-4-ylacetyl)amino]terephthalamide] |  |  | 16.5 | 334
O=C(CN1CCOCC1)Nc1cc(C(=O)Nc2ccc(-c3ccccc3)cc2)ccc1OCc1ccccc1 [Example 24, 4-(benzyloxy)-N-(biphenyl-4-yl)-3-[(morpholin-4-ylacetyl)amino]benzamide] |  |  | ≥ 50 | 360
O=C(CN1CCOCC1)Nc1cc(NC(=O)c2ccc(-c3ccccc3)cc2)ccc1F [Example 29, N-{4-fluoro-3-[(morpholin-4-ylacetyl)amino]phenyl}biphenyl-4-carboxamide] |  |  | ≥ 50 | 2150
C[C@H](C(=O)Nc1cc(NC(=O)c2ccc(-c3ccccc3)cc2)ccc1F)N1CCOCC1 [Example 31, N-(4-fluoro-3-{[(2R)-2-(morpholin-4-yl)propanoyl]amino}phenyl)biphenyl-4-carboxamide] |  |  | ≥ 50 | 3830
COc1ccc(NC(=O)c2ccc(-c3ccccc3)cc2)cc1NC(=O)CN1CCO[C@@H](CO)C1 [Example 34, N-[3-({[(2R)-2-(hydroxymethyl)morpholin-4-yl]acetyl}amino)-4-methoxyphenyl]biphenyl-4-carboxamide] |  |  | ≥ 50 | 1060

Second part, the molecule after the results:

IC50 [1] [nM] | IC50 [2] [µM] | IC50 ([2]; Homo sapiens, HCT-116, 36 h) [µM] | IC50 ([1]; Homo sapiens, HCT-116, 36 h) [nM] | SMILES
301 | ≥ 50 |  |  | CC(C(=O)Nc1cc(NC(=O)c2ccc(-c3ccccc3)cc2)ccc1C(F)(F)F)N1CCOCC1 (single isomer, unassigned) [Example 180, N-(3-{[(2S*)-2-(morpholin-4-yl)propanoyl]amino}-4-(trifluoromethyl)phenyl] biphenyl-4-carboxamide]
311 |  | ≥ 50 |  | CC(C(=O)Nc1cc(NC(=O)c2ccc(-c3ccccc3)cc2)ccc1C(F)(F)F)N1CC2CCC(C1)O2 (single isomer, unassigned) [Example 182, N-[3-{[(2R*)-2-(8-oxa-3-azabicyclo[3.2.1]oct-3-yl)propanoyl]amino}-4-(trifluoromethyl)phenyl] biphenyl-4-carboxamide]
 |  | ≥ 50 | 2000 | COc1ccc(NC(=O)c2ccc(-c3ccccc3)cc2)cc1NC(=O)CN1CCCC(OC)C1 (stereo not shown) [Example 38, N-(4-methoxy-3-{[(3-methoxypiperidin-1-yl)acetyl]amino}phenyl)biphenyl-4-carboxamide]
 |  | ≥ 50 | 1110 | COCCNCC(=O)Nc1cc(NC(=O)c2ccc(-c3ccccc3)cc2)ccc1OC [Example 42, N-(4-methoxy-3-{[N-(2-methoxyethyl)glycyl]amino}phenyl)biphenyl-4-carboxamide]
 |  | ≥ 50 | 2900 | COc1ccc(NC(=O)c2ccc(-c3ccccc3)cc2)cc1NC(=O)CN1CCOC[C@H]1CCO [Example 44, N-[3-({[(3R)-3-(2-hydroxyethyl)morpholin-4-yl]acetyl}amino)-4-methoxyphenyl]biphenyl-4-carboxamide]
 |  | ≥ 50 | 3850 | COc1ccc(NC(=O)c2ccc(-c3ccccc3)cc2)cc1NC(=O)CN1CCC(O)CC1 [Example 45, N-(3-{[(4-hydroxypiperidin-1-yl)acetyl]amino}-4-methoxyphenyl)biphenyl-4-carboxamide]
 |  | ≥ 50 | 3450 | COc1ccc(NC(=O)c2ccc(-c3ccccc3)cc2)cc1NC(=O)CN1CCC2(CCO2)C1 (stereo not shown) [Example 46, N-{4-methoxy-3-[(1-oxa-6-azaspiro[3.4]oct-6-ylacetyl)amino]phenyl}biphenyl-4-carboxamide]
 |  | 33.5 | 718 | COc1ccc(NC(=O)c2ccc(-c3ccccc3)cc2)cc1NC(=O)CN1CCN(C)CC1 [Example 47, N-(4-methoxy-3-{[(4-methylpiperazin-1-yl)acetyl]amino}phenyl)biphenyl-4-carboxamide]
 |  | ≥ 50 | 2650 | COCCN(C)CC(=O)Nc1cc(NC(=O)c2ccc(-c3ccccc3)cc2)ccc1OC [Example 49, N-(4-methoxy-3-{[N-(2-methoxyethyl)-N-methylglycyl]amino}phenyl)biphenyl-4-carboxamide]
 |  | 23 | 3640 | CCN1CCN(CC(=O)Nc2cc(NC(=O)c3ccc(-c4ccccc4)cc3)ccc2OC)CC1 [Example 50, N-(3-{[(4-ethylpiperazin-1-yl)acetyl]amino}-4-methoxyphenyl)biphenyl-4-carboxamide]
 |  | ≥ 50 | 3180 | COc1ccc(NC(=O)c2ccc(-c3ccccc3)cc2)cc1NC(=O)CN1CCN(S(C)(=O)=O)CC1 [Example 51, N-[4-methoxy-3-({[4-(methylsulfonyl)piperazin-1-yl]acetyl}amino)phenyl]biphenyl-4-carboxamide]
 |  | ≥ 50 | 470 | COc1ccc(NC(=O)c2ccc(-c3ccccc3)cc2)cc1NC(=O)CN1CCOCC1 [Example 52, N-{4-methoxy-3-[(morpholin-4-ylacetyl)amino]phenyl}biphenyl-4-carboxamide]
 |  | ≥ 50 | 350 | COc1ccc(NC(=O)c2ccc(-c3ccccc3)cc2)cc1NC(=O)[C@H](C)N1CCOCC1 [Example 54, N-(4-methoxy-3-{[(2S)-2-(morpholin-4-yl)propanoyl]amino}phenyl)biphenyl-4-carboxamide]
 |  | ≥ 50 | 834 | COc1ccc(NC(=O)c2ccc(-c3ccccc3)cc2)cc1NC(=O)[C@@H](C)N1CCOCC1 [Example 55, N-(4-methoxy-3-{[(2R)-2-(morpholin-4-yl)propanoyl]amino}phenyl)biphenyl-4-carboxamide]
 |  | ≥ 50 | 490 | COc1ccc(NC(=O)c2ccc(-c3ccccc3)cc2)cc1NC(=O)[C@@H](C)N1CC2CCC(C1)O2 [Example 57, N-(4-methoxy-3-{[(2R)-2-(8-oxa-3-azabicyclo[3.2.1]oct-3-yl)propanoyl]amino}phenyl)biphenyl-4-carboxamide]
